Reference: patent US8119692B2 (priority 2007, dated 2012)
pKi: −log10 of the molar value.

target: Lethal factor protease (Bacillus anthracis, UniProt P15917); assay: biochemical; details: LF (FRET) Ki^app
Sequence (P15917 34-809 limits assumed): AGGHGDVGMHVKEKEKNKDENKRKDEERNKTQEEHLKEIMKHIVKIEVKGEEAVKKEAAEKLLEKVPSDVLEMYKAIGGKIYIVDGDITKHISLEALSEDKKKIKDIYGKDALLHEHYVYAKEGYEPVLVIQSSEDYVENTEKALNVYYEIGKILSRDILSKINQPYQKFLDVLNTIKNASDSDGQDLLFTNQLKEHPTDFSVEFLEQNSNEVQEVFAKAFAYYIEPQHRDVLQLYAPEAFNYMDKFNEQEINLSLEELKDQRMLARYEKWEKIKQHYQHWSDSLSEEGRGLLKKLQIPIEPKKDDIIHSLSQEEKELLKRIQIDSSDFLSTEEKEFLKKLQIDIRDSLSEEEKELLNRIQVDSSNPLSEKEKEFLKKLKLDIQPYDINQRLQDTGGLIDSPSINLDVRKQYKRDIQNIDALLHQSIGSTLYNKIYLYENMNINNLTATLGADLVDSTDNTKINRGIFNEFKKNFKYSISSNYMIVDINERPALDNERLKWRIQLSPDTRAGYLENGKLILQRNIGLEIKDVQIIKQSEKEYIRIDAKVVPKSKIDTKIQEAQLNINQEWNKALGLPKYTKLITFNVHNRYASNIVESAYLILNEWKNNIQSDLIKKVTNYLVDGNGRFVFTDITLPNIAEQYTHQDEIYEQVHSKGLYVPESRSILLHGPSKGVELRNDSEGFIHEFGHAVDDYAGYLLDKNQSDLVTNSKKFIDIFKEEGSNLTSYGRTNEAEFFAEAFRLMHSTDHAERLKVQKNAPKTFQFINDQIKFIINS

**Q.** With CO[C@H](C[C@H](CCN1CCc2ccccc2C1)C(=O)NO)c1ccc(F)cc1 [Compound 167891, (2S,4R)-2-(2-(3,4-dihydroisoquinolin-2(1H)-yl)ethyl)-4-(4-fluorophenyl)-N-hydroxy-4-methoxybutanamide] as the molecule, how does the pKi read?
**A.** 6.04

**Q.** CO[C@H](C[C@H](CCCCNCc1cc2ccccc2s1)C(=O)NO)c1ccc(F)cc1 [Compound 168231, (S)-6-(benzo[b]thiophen-2-ylmethylamino)-2-((R)-2-(4-fluorophenyl)-2-methoxyethyl)-N-hydroxyhexanamide] was tested. Which pKi did it give?
**A.** 6.49

**Q.** COC(CCC(=O)NO)c1cccc(F)c1 (centres unmarked) [Compound 167456, 4-(3-fluorophenyl)-N-hydroxy-4-methoxybutanamide] was tested. Which pKi did it give?
**A.** 4.29

**Q.** COC(CCC(=O)NO)c1ccc(C)c(F)c1 (centres unmarked) [Compound 167463, 4-(3-fluoro-4-methylphenyl)-N-hydroxy-4-methoxybutanamide] was tested. Which pKi did it give?
**A.** 4.18

**Q.** How did the pKi turn out when CO[C@H](C[C@H](CCCc1ccccc1)C(=O)NO)c1ccc(F)cc1 [Compound 167337, (2S)-2-((2R)-2-(4-fluorophenyl)-2-methoxyethyl)-N-hydroxy-5-phenylpentanamide] was run?
**A.** 5.11

**Q.** CO[C@H](C[C@H](CCN(C)Cc1ccc(-c2ccc(F)c(C)c2)cc1)C(=O)NO)c1ccc(F)cc1 [Compound 168037, (2S,4R)-2-(2-(((4′-fluoro-3′-methylbiphenyl-4-yl)methyl)(methyl)amino)ethyl)-4-(4-fluorophenyl)-N-hydroxy-4-methoxybutanamide] was tested. Which pKi did it give?
**A.** 6.17

**Q.** How did the pKi turn out when CO[C@H](C[C@H](CCN1CCNCC1)C(=O)NO)c1ccc(F)cc1 [Compound 167955, (2S,4R)-4-(4-fluorophenyl)-N-hydroxy-4-methoxy-2-(2-(piperazin-1-yl)ethyl)butanamide] was run?
**A.** 6.08

**Q.** With CO[C@H](C[C@H](CC1CC1)C(=O)NO)c1ccc(F)cc1 [Compound 167433, (2S,4R)-2-(cyclopropylmethyl)-4-(4-fluorophenyl)-N-hydroxy-4-methoxybutanamide] as the molecule, how does the pKi read?
**A.** 5.85

**Q.** COC(CCC(=O)NO)c1ccc(F)c(C)c1 (centres unmarked) [Compound 167232, 4-(4-fluoro-3-methylphenyl)-N-hydroxy-4-methoxybutanamide] was tested. Which pKi did it give?
**A.** 5.05

**Q.** With CO[C@H](C[C@H](CCN1CCC[C@@H](CN2CCCCC2)C1)C(=O)NO)c1ccc(F)cc1 [Compound 168045, (2S,4R)-4-(4-fluorophenyl)-N-hydroxy-4-methoxy-2-(2-((S)-3-(piperidin-1-ylmethyl)piperidin-1-yl)ethyl)butanamide] as the molecule, how does the pKi read?
**A.** 6.37

**Q.** How did the pKi turn out when CO[C@H](CCC(=O)NO)c1ccc(F)cc1 [Compound 167204, (R)-4-(4-fluorophenyl)-N-hydroxy-4-methoxybutanamide] was run?
**A.** 5.10

**Q.** How did the pKi turn out when CO[C@H](C[C@H](CCN(C)Cc1cccc(-c2ccc(F)c(C)c2)c1)C(=O)NO)c1ccc(F)cc1 [Compound 168003, (2S,4R)-2-(2-(((4′-fluoro-3′-methylbiphenyl-3-yl)methyl)(methyl)amino)ethyl)-4-(4-fluorophenyl)-N-hydroxy-4-methoxybutanamide] was run?
**A.** 5.64

**Q.** How did the pKi turn out when CO[C@H](C[C@H](CCCCNCc1ccc(Oc2ccccc2)cc1)C(=O)NO)c1ccc(F)cc1 [Compound 168224, (S)-2-((R)-2-(4-fluorophenyl)-2-methoxyethyl)-N-hydroxy-6-(4-phenoxybenzylamino)hexanamide] was run?
**A.** 6.64

**Q.** With COC(CC(Cc1ccccc1)C(=O)NO)c1ccc(F)cc1 (centres unmarked) [Compound 167286, 2-Benzyl-4-(4-fluorophenyl)-N-hydroxy-4-methoxy-butyramide] as the molecule, how does the pKi read?
**A.** 3.77

**Q.** How did the pKi turn out when CCCC[C@H](C[C@H](OC)c1ccc(F)cc1)C(=O)NO [Compound 167389, (2R)-2-((2S)-2-(4-fluorophenyl)-2-methoxyethyl)-N-hydroxyhexanamide] was run?
**A.** 4.12

**Q.** O=C(CC[C@@H](O)c1ccc(F)cc1)NO [Compound 167206, (R)-4-(4-fluorophenyl)-N,4-dihydroxybutanamide] was tested. Which pKi did it give?
**A.** 4.18

**Q.** CO[C@H](C[C@H](CCN1CCN(CCCc2ccccc2)CC1)C(=O)NO)c1ccc(F)cc1 [Compound 167959, (2S,4R)-4-(4-fluorophenyl)-N-hydroxy-4-methoxy-2-(2-(4-(3-phenylpropyl)piperazin-1-yl)ethyl)butanamide] was tested. Which pKi did it give?
**A.** 6.00
